Twelve molecules from patent US7342027B2 (Yuhan Corporation, priority 2002, dated 2008) can be followed below.

Usually IC50 stands for the midpoint of a concentration-inhibition curve.

What all share (assay type): biochemical
Experiment [1] deals with T1, Cathepsin L (Calbiochem, 219402) (Homo sapiens, UniProt P07711).
T1 construct: purchased Calbiochem 219402
The experiment is described as follows: Selectivity study: cathepsin L (Z-Phe-Arg-AMC). To be noted: 1 hour at 25° C., read-out: Cathepsins (IC50, nM) L. The procedure: (§1) Test 2: Selectivity Study
(§2) Selectivity study for the compounds of the present invention was performed using cathepsin C (Sigma, C8511), cathepsin G (Calbiochem, 219373), cathepsin H (Calbiochem, 219388), cathepsin L (Calbiochem, 219402), and cathepsin S (Eur. J. Biochem. 236, 558 (1996) as enzyme sources.
Cathepsin L (Calbiochem, 219402) was dissolved in 50 mM NaOAc buffer (pH 5.0). All inhibitors were prepared in dimethyl sulfoxide (DMSO). […] Samples were pre-incubated for 5 minutes at 25° C. Reaction was initiated by the addition of enzyme to samples, which were then incubated for 1 hour at 25° C. The fluorescence of AMC (7-amino-4-methylcoumarin) was monitored at 460 nm (excitation wavelength 360 nm), using fluorescence spectrophotometer.
(§3) The concentrations of the test compounds, which inhibit 50% of cathepsin s C, G, H, L and S activity, are represented as IC50 in Table 2.

The target in experiment [2] is T2, Cathepsin G (Calbiochem, 219373) (Homo sapiens, UniProt P08311).
T2 construct: purchased Calbiochem 219373
T2 sequence (P08311 21-244): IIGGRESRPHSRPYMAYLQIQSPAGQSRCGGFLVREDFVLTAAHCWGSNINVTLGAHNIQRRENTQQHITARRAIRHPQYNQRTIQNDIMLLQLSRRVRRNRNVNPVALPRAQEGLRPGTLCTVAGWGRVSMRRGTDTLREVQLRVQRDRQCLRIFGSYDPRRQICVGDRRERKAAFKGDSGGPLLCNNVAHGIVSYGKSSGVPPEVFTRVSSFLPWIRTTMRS
The experiment is described as follows: Selectivity study: cathepsin G (Suc-Ala-Ala-Pro-Phe-pNA). The following applies: 1 hour at 25° C., read-out: Cathepsins (IC50, nM) G. As to the method: as §1, §2
Cathepsin G (Calbiochem, 219373) was dissolved in 50 mM NaOAc and 150 mM NaCl buffer (pH 5.5). All inhibitors were prepared in dimethyl sulfoxide (DMSO). In vitro assays for cathepsin G were conducted with Suc-Ala-Ala-Pro-Phe-pNA (Calbiochem, 219407) as a substrate. Samples were pre-incubated for 10 minutes at 25° C. Reaction was initiated by the addition of enzyme to samples, which were then incubated for 1 hour at 25° C. The absorbance of p-nitroaniline released was monitored at 405 nm using spectrophotometer.
as §3

The target of experiment [3] is T3, Cathepsin H (Calbiochem, 219388) (Homo sapiens, UniProt P09668).
T3 construct: purchased Calbiochem 219388
T3 sequence (P09668 98-335): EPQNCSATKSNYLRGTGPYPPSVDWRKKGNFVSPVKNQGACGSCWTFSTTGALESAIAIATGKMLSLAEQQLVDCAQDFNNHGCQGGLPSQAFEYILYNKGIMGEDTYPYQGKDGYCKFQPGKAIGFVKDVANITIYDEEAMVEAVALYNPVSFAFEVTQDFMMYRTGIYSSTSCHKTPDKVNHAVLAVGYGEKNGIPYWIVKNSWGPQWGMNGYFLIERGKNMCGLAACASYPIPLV
The experiment is described as follows: Selectivity study: cathepsin H (L-Arg-pNA). To be noted: 1 hour at 40° C., read-out: Cathepsins (IC50, nM) H. The procedure: as §1, §2
Cathepsin H (Calbiochem, 219388) was dissolved in 20 mM NaOAc, 1 mM EDTA-2Na and 100 mM NaCl buffer (pH 4.6). All inhibitors were prepared dimethyl sulfoxide (DMSO). In vitro assays for cathepsin H were conducted with L-Arg-pNA (BACHEM, 1-1160) as a substrate. Samples were pre-incubated for 5 minutes at 40° C. Reaction was initiated by the addition of enzyme to samples, which were then incubated for 1 hour at 40° C. The absorbance of p-nitroaniline released was monitored at 405 nm using spectrophotometer.
as §3

Experiment [4] deals with T4, Cathepsin C (Sigma, C8511) (Bos taurus, UniProt Q3ZCJ8).
T4 construct: purchased Sigma C8511
The experiment is described as follows: Selectivity study: cathepsin C (Gly-Phe-pNA). To be noted: 1 hour at 37° C., read-out: Cathepsins (IC50, nM) C. The procedure:
as §1, §2
Cathepsin C (Sigma, C8511) was dissolved in D.W. buffer (pH 5.5). All inhibitors were prepared in dimethyl sulfoxide (DMSO). In vitro assays for cathepsin C were conducted with Gly-Phe-pNA (Sigma, G-0142) as a substrate. Samples were pre-incubated for 10 minutes at 37° C. Reaction was initiated by the addition of enzyme to samples, which were then incubated for 1 hour at 37° C. The absorbance of p-nitroaniline released was monitored at 405 nm using spectrophotometer.
as §3

The target in experiment [5] is Recombinant human Cathepsin S (Homo sapiens, UniProt P25774). The experiment can be described thus: Selectivity study: cathepsin S (Z-Val-Val-AMC). The following applies: 30 minutes at 37° C., read-out: Cathepsins (IC50, nM) S. The procedure:
as §1, §2
Recombinant human Cathepsin S (Eur. J. Biochem. 236, 558 (1996) was dissolved in 0.1 M NaOAc 1 mM EDTA-4Na buffer (pH 5.5). All inhibitors were prepared in dimethyl sulfoxide (DMSO). In vitro assays for cathepsin S were conducted with Z-Val-Val-AMC (BACHEM, 1-1160) as a substrate. Samples were pre-incubated for 10 minutes at 4° C. Reaction was initiated by the addition of enzyme to samples, which were then incubated for 30 minutes at 37° C. The florescence of AMC (7-amino-4-methylcoumarin) released was monitored at 465 nm (excitation wavelength 360 nm), using fluorescence spectrophotometer.
as §3

Experiment [6] concerns the target T5, Recombinant human cathepsin K (Homo sapiens, UniProt P43235).
T5 construct: made in house
T5 sequence (P43235 115-329): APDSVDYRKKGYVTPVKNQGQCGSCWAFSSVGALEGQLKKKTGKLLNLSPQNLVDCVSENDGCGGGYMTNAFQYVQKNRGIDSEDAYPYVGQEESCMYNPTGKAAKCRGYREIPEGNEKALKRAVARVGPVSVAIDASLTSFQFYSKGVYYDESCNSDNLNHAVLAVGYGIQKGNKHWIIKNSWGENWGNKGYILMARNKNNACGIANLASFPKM
The experiment can be described thus: Inhibition of cathepsin K activity (Z-Phe-Arg-AMC fluorescence assay). To be noted: 25 uM Z-Phe-Arg-AMC, pH 5.5, 1 hour at 37° C. The procedure, abridged: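 Z-Phe-Arg-AMC at 25 uM in 100 mM Na acetate pH 5.5 with 20 mM cysteine, 5 mM EDTA and 2% final DMSO; reaction started by adding enzyme, then 1 hour at 37° C. Fluorescence read at ex 360/em 460 nm; IC50 is the concentration giving 50% inhibition.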

T4 sequence (Q3ZCJ8 25-463): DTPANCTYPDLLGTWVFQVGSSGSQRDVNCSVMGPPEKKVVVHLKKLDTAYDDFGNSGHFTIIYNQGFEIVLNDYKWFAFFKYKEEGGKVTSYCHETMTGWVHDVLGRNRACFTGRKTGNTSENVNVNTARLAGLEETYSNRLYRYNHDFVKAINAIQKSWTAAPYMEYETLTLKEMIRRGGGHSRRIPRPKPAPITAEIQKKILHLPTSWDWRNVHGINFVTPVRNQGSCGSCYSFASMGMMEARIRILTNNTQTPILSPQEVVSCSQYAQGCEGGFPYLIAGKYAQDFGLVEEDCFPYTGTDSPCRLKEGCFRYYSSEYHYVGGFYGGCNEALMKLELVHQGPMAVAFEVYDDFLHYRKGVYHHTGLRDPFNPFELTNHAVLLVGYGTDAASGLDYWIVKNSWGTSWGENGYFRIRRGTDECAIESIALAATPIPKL
Chain of Recombinant human Cathepsin S (P25774 115-331): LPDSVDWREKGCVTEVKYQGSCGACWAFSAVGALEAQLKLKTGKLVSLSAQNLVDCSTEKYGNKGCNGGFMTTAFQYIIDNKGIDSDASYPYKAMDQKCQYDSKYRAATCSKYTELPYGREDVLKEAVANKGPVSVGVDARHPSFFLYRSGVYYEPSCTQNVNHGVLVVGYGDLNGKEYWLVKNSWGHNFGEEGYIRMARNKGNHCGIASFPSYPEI
T1 sequence (P07711 114-333): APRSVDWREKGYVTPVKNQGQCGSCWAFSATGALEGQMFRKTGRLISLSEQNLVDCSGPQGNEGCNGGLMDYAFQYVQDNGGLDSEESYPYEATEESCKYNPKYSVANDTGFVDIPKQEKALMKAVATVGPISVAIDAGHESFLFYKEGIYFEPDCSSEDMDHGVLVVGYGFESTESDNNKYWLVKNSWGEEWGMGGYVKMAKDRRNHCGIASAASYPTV

Take `O=C(NC1(C(=O)NC2CCN(c3ccccc3-n3cccc3)CC2=O)CCCCC1)c1cc2ccccc2o1` (stereo not shown) [Example 60, 4-[N-[1-[N-(benzofuran-2-ylcarbonyl)amino]cyclohexanecarbonyl]amino]-1-[2-(pyrrol-1-yl)phenyl]piperidin-3-one]: the IC50 in experiment [1] was 103 nM; in experiment [2], over 1000 nM; in experiment [3], over 1000 nM; in experiment [4], over 1000 nM; in experiment [5], over 150 nM.

Take `CNC(=O)c1ccccc1N1CCC(NC(=O)C2(NC(=O)c3cc4ccccc4o3)CCCCC2)C(=O)C1` (stereo not shown) [Example 62, 4-[N-[1-[N-(benzofuran-2-ylcarbonyl)amino]cyclohexanecarbonyl]amino]-1-[2-(N-methylcarbamoyl)phenyl]piperidin-3-one]: the IC50 in experiment [1] is over 450 nM; in experiment [2], over 1000 nM; in experiment [3] it was over 1000 nM; in experiment [4], over 1000 nM; in experiment [5], over 450 nM.

With `CS(=O)(=O)c1cc(F)ccc1N1CCC(NC(=O)C2(NC(=O)c3ccco3)CCCCC2)C(=O)C1` (stereo not shown) [Example 83, 4-[N-[1-[N-(furan-2-ylcarbonyl)amino]cyclohexanecarbonyl]amino]-1-(4-fluoro-2-methylsulfonylphenyl)piperidin-3-one], the IC50 was 2.69 nM in experiment [6]; 352 nM in experiment [1]; over 810 nM in experiment [2]; over 810 nM in experiment [3]; over 810 nM in experiment [4]; 177 nM in experiment [5].

As to `O=C(NC1(C(=O)NC2CCN(c3ccccc3N3CCCC3=O)CC2=O)CCCCC1)c1cc2ccccc2o1` (stereo not shown) [Example 44, 4-[N-[1-[N-(benzofuran-2-ylcarbonyl)amino]cyclohexanecarbonyl]amino]-1-[2-(pyrrolidin-2-one-1-yl)phenyl]piperidin-3-one], the IC50 in experiment [6] is 4.96 nM; in experiment [1], 574 nM; in experiment [2], over 690 nM; in experiment [3] it was over 690 nM; in experiment [4] it was 394 nM; in experiment [5], 460 nM.

For the molecule `CN(C)C(=O)c1ccccc1N1CCC(NC(=O)C2(NC(=O)c3cc4ccccc4o3)CCCCC2)C(=O)C1` (stereo not shown) [Example 61, 4-[N-[1-[N-(benzofuran-2-ylcarbonyl)amino]cyclohexanecarbonyl]amino]-1-[2-(N,N-dimethylcarbamoyl)phenyl]piperidin-3-one], the IC50 was over 300 nM in experiment [1]; over 1000 nM in experiment [2]; over 1000 nM in experiment [3]; over 1000 nM in experiment [4]; over 300 nM in experiment [5].

For `O=C(NC1(C(=O)NC2CCN(c3ccccc3[N+](=O)[O-])CC2=O)CCCCC1)c1cc2ccccc2o1` (stereo not shown) [Example 2, 4-[N-[1-[N-(benzofuran-2-ylcarbonyl)amino]cyclohexanecarbonyl]amino]-1-(2-nitrophenyl)piperidin-3-one], the IC50 in experiment [6] was 5.97 nM; in experiment [1], 2100 nM; in experiment [2] it was over 1000 nM; in experiment [3], over 1000 nM; in experiment [4] it was over 1000 nM; in experiment [5], 2100 nM.

Regarding `CC(C)S(=O)(=O)c1ccccc1N1CCC(NC(=O)C2(NC(=O)c3ccco3)CCCCC2)C(=O)C1` (stereo not shown) [Example 80, 4-[N-[1-[N-(furan-2-ylcarbonyl)amino]cyclohexanecarbonyl]amino]-1-(2-isopropylsulfonylphenyl)piperidin-3-one], the IC50 in experiment [6] is 5.05 nM; in experiment [1], 381 nM; in experiment [2], over 1000 nM; in experiment [3], over 1000 nM; in experiment [4] it was over 1000 nM; in experiment [5] it was 109 nM.

As for `CS(=O)(=O)c1ccccc1N1CCC(NC(=O)C2(NC(=O)c3ccco3)CCCCC2)C(=O)C1` (stereo not shown) [Example 76, 4-[N-[1-[N-(furan-2-ylcarbonyl)amino]cyclohexanecarbonyl]amino]-1-(2-methanesulfonylphenyl)piperidin-3-one], the IC50 is 8.17 nM in experiment [6]; 971 nM in experiment [1]; over 2460 nM in experiment [2]; over 2460 nM in experiment [3]; over 2460 nM in experiment [4]; 204 nM in experiment [5].

For `O=C(NC1(C(=O)NC2CCN(c3ccc(F)cc3N3CCC3=O)CC2=O)CCCCC1)c1ccco1` (stereo not shown) [Example 94, 4-[N-[1-[N-(furan-2-ylcarbonyl)amino]cyclohexanecarbonyl]amino]-1-[4-fluoro-2-(azetidin-2-one-1-yl)phenyl]piperidin-3-one], the IC50 was 1450 nM in experiment [1]; over 1000 nM in experiment [2]; over 1000 nM in experiment [3]; over 1000 nM in experiment [4]; 197 nM in experiment [5].

`COc1ccc(N2CCC(NC(=O)C3(NC(=O)c4ccco4)CCCCC3)C(=O)C2)c(S(C)(=O)=O)c1` (stereo not shown) [Example 84, 4-[N-[1-[N-(furan-2-ylcarbonyl)amino]cyclohexanecarbonyl]amino]-1-(4-methoxy-2-methylsulfonylphenyl)piperidin-3-one]: the concentration for half-maximal inhibition (IC50) was 6.24 nM in experiment [6]; 986 nM in experiment [1]; over 1000 nM in experiment [2]; over 1000 nM in experiment [3]; over 1000 nM in experiment [4]; 212 nM in experiment [5].

`CS(=O)(=O)c1cc(F)ccc1N1CCC(NC(=O)C2(NC(=O)c3ccc(F)cc3)CCCCC2)C(=O)C1` (stereo not shown) [Example 147, 4-[N-[1-[N-(4-fluorobenzoyl)amino]cyclohexanecarbonyl]amino]-1-(4-fluoro-2-methanesulfonylphenyl)piperidin-3-one]: the IC50 is 4.77 nM in experiment [6]; 249 nM in experiment [1]; over 1000 nM in experiment [2]; over 1000 nM in experiment [3]; over 1000 nM in experiment [4]; 214 nM in experiment [5].

Regarding `O=C(NC1(C(=O)NC2CCN(c3ccccc3N3CC=CC3)CC2=O)CCCCC1)c1cc2ccccc2o1` (stereo not shown) [Example 57], the IC50 in experiment [1] is 285 nM; in experiment [2], over 1000 nM; in experiment [3], over 1000 nM; in experiment [4] it was over 1000 nM; in experiment [5] it was 731 nM.
